Measured values from patent publication US9738634B2, “Heterocyclic amide compound and herbicide” (SYNGENTA PARTICIPATIONS AG, priority 2013, dated 2017).

Experiments:
Type in all cases: in vivo
Conditions in all cases: treatment dosage 320 g/ha
Indian mallow [1] = assay: Test Example 4: weedkilling efficacy by foliar treatment; K: Indian mallow
Method in brief: (§1)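 Seeds are spot-sown into sterilized diluvial soil and covered with about 1.5 cm of soil. After 14 days' greenhouse growth at 25 to 30° C, plants are sprayed on stems and leaves with diluted emulsion at the stated g/ha rate, then scored at 3 weeks.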

wheat [2] = assay: Test Example 3: soil treatment, effect on crop; e: wheat
Method in brief: (§2)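 Crop and weed responses were judged three weeks after a uniform surface spray of the water-diluted emulsion at the given g/ha rate. Seeds sat beneath about 1.5 cm of sterilized diluvial soil, and boxes stood in a greenhouse at 25 to 30° C.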

green foxtail [3] = assay: Test Example 4: weedkilling efficacy by foliar treatment; E: green foxtail
Method in brief: as §1

oval-leafed pondweed [4] = assay: Test Example 1: weedkilling efficacy, preemergent weed treatment in the submerged state; C: oval-leafed pondweed
Method in brief: (§3)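 Submerged pre-emergence treatment, water-surface application of compound emulsion at g/ha dosages; 4 cm flooded alluvial soil, weeds sown and 2.5-leaf rice transplanted same day. Rated after 3 weeks, greenhouse.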

barnyard grass [5] = assay: Test Example 4: weedkilling efficacy by foliar treatment; F: barnyard grass
Method in brief: as §1

green foxtail [6] = assay: Test Example 3: weedkilling efficacy through soil treatment; E: green foxtail
Method in brief: as §2

corn [7] = assay: Test Example 3: soil treatment, effect on crop; c: corn
Method in brief: as §2

rapeseed [8] = assay: Test Example 3: soil treatment, effect on crop; g: rapeseed
Method in brief: as §2

chickweed [9] = assay: Test Example 4: weedkilling efficacy by foliar treatment; N: chickweed
Method in brief: as §1

transplanted rice = assay: Test Example 1: preemergent weed treatment in the submerged state, effect on crop; a: transplanted rice
Method in brief: as §3

soybean [10] = assay: Test Example 3: soil treatment, effect on crop; d: soybean
Method in brief: as §2

birds-eye speedwell [11] = assay: Test Example 3: weedkilling efficacy through soil treatment; p: birds-eye speedwell
Method in brief: as §2

wild oat [12] = assay: Test Example 3: weedkilling efficacy through soil treatment; G: wild oat
Method in brief: as §2

Italian ryegrass [13] = assay: Test Example 4: weedkilling efficacy by foliar treatment; I: Italian ryegrass
Method in brief: as §1

wild oat [14] = assay: Test Example 4: weedkilling efficacy by foliar treatment; G: wild oat
Method in brief: as §1

fig-leafed goosefoot [15] = assay: Test Example 3: weedkilling efficacy through soil treatment; M: fig-leafed goosefoot
Method in brief: as §2

black-grass [16] = assay: Test Example 4: weedkilling efficacy by foliar treatment; H: black-grass
Method in brief: as §1

barnyard grass [17] = assay: Test Example 2: weedkilling efficacy, growth period weed treatment in the submerged state; A: barnyard grass
Method in brief: (§4)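 Seedlings at 1-2 leaves in 4 cm-deep submerged alluvial soil received emulsion formulations on the water surface, dosed per hectare; effects were judged 3 weeks on.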

directly sown rice [18] = assay: Test Example 3: soil treatment, effect on crop; b: directly sown rice
Method in brief: as §2

common wind-grass [19] = assay: Test Example 3: weedkilling efficacy through soil treatment; J: common wind-grass
Method in brief: as §2

soybean [20] = assay: Test Example 4: foliar treatment, effect on crop; d: soybean
Method in brief: as §1

redroot pigweed [21] = assay: Test Example 3: weedkilling efficacy through soil treatment; L: redroot pigweed
Method in brief: as §2

rapeseed [22] = assay: Test Example 4: foliar treatment, effect on crop; g: rapeseed
Method in brief: as §1

beet [23] = assay: Test Example 3: soil treatment, effect on crop; f: beet
Method in brief: as §2

Indian mallow [24] = assay: Test Example 3: weedkilling efficacy through soil treatment; K: Indian mallow
Method in brief: as §2

directly sown rice [25] = assay: Test Example 4: foliar treatment, effect on crop; b: directly sown rice
Method in brief: as §1

chickweed [26] = assay: Test Example 3: weedkilling efficacy through soil treatment; N: chickweed
Method in brief: as §2

crabgrass [27] = assay: Test Example 4: weedkilling efficacy by foliar treatment; D: crabgrass
Method in brief: as §1

common wind-grass [28] = assay: Test Example 4: weedkilling efficacy by foliar treatment; J: common wind-grass
Method in brief: as §1

redroot pigweed [29] = assay: Test Example 4: weedkilling efficacy by foliar treatment; L: redroot pigweed
Method in brief: as §1

beet [30] = assay: Test Example 4: foliar treatment, effect on crop; f: beet
Method in brief: as §1

barnyard grass [31] = assay: Test Example 1: weedkilling efficacy, preemergent weed treatment in the submerged state; A: barnyard grass
Method in brief: as §3

black-grass [32] = assay: Test Example 3: weedkilling efficacy through soil treatment; H: black-grass
Method in brief: as §2

wheat [33] = assay: Test Example 4: foliar treatment, effect on crop; e: wheat
Method in brief: as §1

Italian ryegrass [34] = assay: Test Example 3: weedkilling efficacy through soil treatment; I: Italian ryegrass
Method in brief: as §2

catchweed [35] = assay: Test Example 4: weedkilling efficacy by foliar treatment; O: catchweed
Method in brief: as §1

bulrush [36] = assay: Test Example 1: weedkilling efficacy, preemergent weed treatment in the submerged state; B: bulrush
Method in brief: as §3

crabgrass [37] = assay: Test Example 3: weedkilling efficacy through soil treatment; D: crabgrass
Method in brief: as §2

birds-eye speedwell [38] = assay: Test Example 4: weedkilling efficacy by foliar treatment; p: birds-eye speedwell
Method in brief: as §1

barnyard grass [39] = assay: Test Example 3: weedkilling efficacy through soil treatment; F: barnyard grass
Method in brief: as §2

corn [40] = assay: Test Example 4: foliar treatment, effect on crop; c: corn
Method in brief: as §1

oval-leafed pondweed [41] = assay: Test Example 2: weedkilling efficacy, growth period weed treatment in the submerged state; C: oval-leafed pondweed
Method in brief: as §4

fig-leafed goosefoot [42] = assay: Test Example 4: weedkilling efficacy by foliar treatment; M: fig-leafed goosefoot
Method in brief: as §1

catchweed [43] = assay: Test Example 3: weedkilling efficacy through soil treatment; O: catchweed
Method in brief: as §2

bulrush [44] = assay: Test Example 2: weedkilling efficacy, growth period weed treatment in the submerged state; B: bulrush
Method in brief: as §4

## CC1=C(c2ccccc2)C(=O)N(C(C)(C)C(=O)Nc2cc(C)cc(F)n2)CO1 [B-2-38]
Indian mallow [1]
  K (Indian mallow) weedkilling efficacy grade: 4 (weed kill ratio 70% or more, less than 90%)
Wheat [2]
  e (wheat) effect on crop grade: 0 (weed kill ratio 5% or less (practically no effect))
Green foxtail [3]
  E (green foxtail) weedkilling efficacy grade: 5 (weed kill ratio 90% or more, (practically complete withering))
oval-leafed pondweed [4]
  C (oval-leafed pondweed) weedkilling efficacy grade: 5 (weed kill ratio 90% or more, (practically complete withering))
Barnyard grass [5]
  F (barnyard grass) weedkilling efficacy grade: 5 (weed kill ratio 90% or more, (practically complete withering))
Green foxtail [6]
  E (green foxtail) weedkilling efficacy grade: 5 (weed kill ratio 90% or more, (practically complete withering))
Corn [7]
  c (corn) effect on crop grade: 1 (weed kill ratio 5% or more, less than 20%)
Rapeseed [8]
  g (rapeseed) effect on crop grade: 4 (weed kill ratio 70% or more, less than 90%)
Chickweed [9]
  N (chickweed) weedkilling efficacy grade: 4 (weed kill ratio 70% or more, less than 90%)
Transplanted rice
  a (transplanted rice) effect on crop grade: 3 (weed kill ratio 40% or more, less than 70%)
Soybean [10]
  d (soybean) effect on crop grade: 4 (weed kill ratio 70% or more, less than 90%)
birds-eye speedwell [11]
  P (birds-eye speedwell) weedkilling efficacy grade: 5 (weed kill ratio 90% or more, (practically complete withering))
Wild oat [12]
  G (wild oat) weedkilling efficacy grade: 5 (weed kill ratio 90% or more, (practically complete withering))
Italian ryegrass [13]
  I (Italian ryegrass) weedkilling efficacy grade: 5 (weed kill ratio 90% or more, (practically complete withering))
Wild oat [14]
  G (wild oat) weedkilling efficacy grade: 5 (weed kill ratio 90% or more, (practically complete withering))
fig-leafed goosefoot [15]
  M (fig-leafed goosefoot) weedkilling efficacy grade: 4 (weed kill ratio 70% or more, less than 90%)
black-grass [16]
  H (black-grass) weedkilling efficacy grade: 5 (weed kill ratio 90% or more, (practically complete withering))
Barnyard grass [17]
  A (barnyard grass) weedkilling efficacy grade: 5 (weed kill ratio 90% or more, (practically complete withering))
Directly sown rice [18]
  b (directly sown rice) effect on crop grade: 5 (weed kill ratio 90% or more, (practically complete withering))
Common wind-grass [19]
  J (common wind-grass) weedkilling efficacy grade: 5 (weed kill ratio 90% or more, (practically complete withering))
Soybean [20]
  d (soybean) effect on crop grade: 4 (weed kill ratio 70% or more, less than 90%)
Redroot pigweed [21]
  L (redroot pigweed) weedkilling efficacy grade: 3 (weed kill ratio 40% or more, less than 70%)
Rapeseed [22]
  g (rapeseed) effect on crop grade: 4 (weed kill ratio 70% or more, less than 90%)
Beet [23]
  f (beet) effect on crop grade: 4 (weed kill ratio 70% or more, less than 90%)
Indian mallow [24]
  K (Indian mallow) weedkilling efficacy grade: 1 (weed kill ratio 5% or more, less than 20%)
Directly sown rice [25]
  b (directly sown rice) effect on crop grade: 5 (weed kill ratio 90% or more, (practically complete withering))
Chickweed [26]
  N (chickweed) weedkilling efficacy grade: 4 (weed kill ratio 70% or more, less than 90%)
Crabgrass [27]
  D (crabgrass) weedkilling efficacy grade: 5 (weed kill ratio 90% or more, (practically complete withering))
Common wind-grass [28]
  J (common wind-grass) weedkilling efficacy grade: 5 (weed kill ratio 90% or more, (practically complete withering))
Redroot pigweed [29]
  L (redroot pigweed) weedkilling efficacy grade: 4 (weed kill ratio 70% or more, less than 90%)
Beet [30]
  f (beet) effect on crop grade: 4 (weed kill ratio 70% or more, less than 90%)
Barnyard grass [31]
  A (barnyard grass) weedkilling efficacy grade: 5 (weed kill ratio 90% or more, (practically complete withering))
black-grass [32]
  H (black-grass) weedkilling efficacy grade: 5 (weed kill ratio 90% or more, (practically complete withering))
Wheat [33]
  e (wheat) effect on crop grade: 1 (weed kill ratio 5% or more, less than 20%)
Italian ryegrass [34]
  I (Italian ryegrass) weedkilling efficacy grade: 5 (weed kill ratio 90% or more, (practically complete withering))
Catchweed [35]
  O (catchweed) weedkilling efficacy grade: 4 (weed kill ratio 70% or more, less than 90%)
Bulrush [36]
  B (bulrush) weedkilling efficacy grade: 5 (weed kill ratio 90% or more, (practically complete withering))
Crabgrass [37]
  D (crabgrass) weedkilling efficacy grade: 5 (weed kill ratio 90% or more, (practically complete withering))
birds-eye speedwell [38]
  P (birds-eye speedwell) weedkilling efficacy grade: 4 (weed kill ratio 70% or more, less than 90%)
Barnyard grass [39]
  F (barnyard grass) weedkilling efficacy grade: 5 (weed kill ratio 90% or more, (practically complete withering))
Corn [40]
  c (corn) effect on crop grade: 5 (weed kill ratio 90% or more, (practically complete withering))
oval-leafed pondweed [41]
  C (oval-leafed pondweed) weedkilling efficacy grade: 5 (weed kill ratio 90% or more, (practically complete withering))
fig-leafed goosefoot [42]
  M (fig-leafed goosefoot) weedkilling efficacy grade: 4 (weed kill ratio 70% or more, less than 90%)
Catchweed [43]
  O (catchweed) weedkilling efficacy grade: 5 (weed kill ratio 90% or more, (practically complete withering))
Bulrush [44]
  B (bulrush) weedkilling efficacy grade: 5 (weed kill ratio 90% or more, (practically complete withering))
